Among the data in patent US9920010B2, “CXCR7 receptor modulators” (IDORSIA PHARMACEUTICALS LTD, priority 2013, dated 2018) are EC50 values, retold here.

The assay deals with T1, CXCR7 (Homo sapiens, UniProt P25106).
T1 construct: host or cells: CHO-K1 (PathHunter CHO-K1 CXCR7 b-arrestin cell line, stably transfected)
The experiment in a line: PathHunter CHO-K1 CXCR7 b-arrestin recruitment assay (CXCR7 agonistic activity). In kind it is cell-based. The note with it: PathHunter CHO-K1 CXCR7 b-arrestin cell line. Put shortly: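 Stable CHO-K1 line with C-terminally ProLink-tagged CXCR7 and β-arrestin 2–EA fusion; β-arrestin recruitment restores β-gal activity, read by chemiluminescence after 1 h RT detection. Cells seeded 24 h, starved in OPTIMEM 3–4 h, exposed to compounds 90 min at 37 °C in HBSS/HEPES/BSA. Geometric-mean EC50 from repeated measurements.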

T1 sequence (P25106 whole entry): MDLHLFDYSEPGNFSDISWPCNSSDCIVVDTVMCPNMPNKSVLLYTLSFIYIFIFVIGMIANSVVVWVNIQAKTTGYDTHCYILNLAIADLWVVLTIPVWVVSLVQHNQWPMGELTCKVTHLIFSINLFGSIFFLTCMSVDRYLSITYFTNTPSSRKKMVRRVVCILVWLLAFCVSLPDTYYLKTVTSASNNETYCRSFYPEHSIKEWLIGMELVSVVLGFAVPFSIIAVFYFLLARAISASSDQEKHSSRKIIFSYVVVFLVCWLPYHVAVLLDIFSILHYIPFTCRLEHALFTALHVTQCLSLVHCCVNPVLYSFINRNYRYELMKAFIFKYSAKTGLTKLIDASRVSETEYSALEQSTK
T1 sequence (P32121 whole entry partner): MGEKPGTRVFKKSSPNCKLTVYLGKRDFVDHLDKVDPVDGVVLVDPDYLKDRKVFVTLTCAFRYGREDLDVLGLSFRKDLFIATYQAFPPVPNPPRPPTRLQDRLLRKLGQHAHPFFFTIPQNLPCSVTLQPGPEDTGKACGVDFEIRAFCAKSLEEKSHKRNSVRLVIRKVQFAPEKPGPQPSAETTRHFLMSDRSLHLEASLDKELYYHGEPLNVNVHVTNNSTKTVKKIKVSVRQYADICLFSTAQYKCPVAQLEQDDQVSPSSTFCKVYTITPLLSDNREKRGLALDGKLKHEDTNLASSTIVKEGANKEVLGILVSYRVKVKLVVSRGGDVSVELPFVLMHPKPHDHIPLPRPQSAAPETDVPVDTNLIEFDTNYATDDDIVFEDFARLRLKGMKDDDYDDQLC

Usually EC50 stands for the concentration that produces a half-maximal response. A low value points to a more potent agent. The compound `CC(C)COC(=O)N1CCc2c(cccc2NCC(=O)N(CCN(C)C)Cc2ccccc2)C1` [compound 122] displayed an EC50 of 337 nM.

In turn, `CN(C)CCN(Cc1ccccc1C(F)(F)F)C(=O)CNc1cccc2c1CCN(CC(F)(F)F)C2` [Example 86, N-(2-Dimethylamino-ethyl)-2-[2-(2,2,2-trifluoro-ethyl)-1,2,3,4-tetrahydro-isoquinolin-5-ylamino]-N-(2-trifluoromethyl-benzyl)-acetamide] displayed an EC50 of 23 nM.

Take `O=C(CNc1cccc2c1CCN(CC1CC1)C2)N(Cc1ccccc1C(F)(F)F)CC1CCNC1` (racemic) [compound 441]: the midpoint of the response, the EC50, lay at 5 nM. Against the preceding compound, the EC50 is about 4.6-fold lower.

For `O=C1CC(CN(Cc2ccccc2C(F)(F)F)C(=O)CNc2cccc3c2CCN(CC2CC2)C3)=CC=N1` [Example 78, 2-(2-Cyclopropylmethyl-1,2,3,4-tetrahydro-isoquinolin-5-ylamino)-N-(2-oxo-2,3-dihydro-pyridin-4-ylmethyl)-N-(2-trifluoromethyl-benzyl)-acetamide], the EC50 was 376 nM.

On to `CN(C)CCN(Cc1ccccc1OC(F)(F)F)C(=O)CNc1cccc2c1CCN(CC1CC1)C2` [Example 227, 2-(2-Cyclopropylmethyl-1,2,3,4-tetrahydro-isoquinolin-5-ylamino)-N-(2-dimethylamino-ethyl)-N-(2-trifluoromethoxy-benzyl)-acetamide], for which the EC50 stood at 6 nM. This EC50 is about 63-fold lower than that of the compound before.

On to `CCN1CCc2cccc(NCC(=O)N(CCN(C)C)Cc3cnc(N(C)C)nc3)c2C1` [compound 534], for which the EC50 turned out to be 395 nM.

For the compound `O=C(CNc1cccc2c1CCN(CC1CC1)C2)N(CCN1CCCCC1)Cc1ccccc1C(F)(F)F` [Example 217, 2-(2-Cyclopropylmethyl-1,2,3,4-tetrahydro-isoquinolin-5-ylamino)-N-(2-piperidin-1-yl-ethyl)-N-(2-trifluoromethyl-benzyl)-acetamide], the EC50 stood at 2 nM.

`CN(C)CCN(Cc1ccccc1C(F)(F)F)C(=O)CCc1cccc2c1CCN(CC1CC1)C2` [compound 158, 3-(2-Cyclopropylmethyl-1,2,3,4-tetrahydro-isoquinolin-5-yl)-N-(2-dimethylamino-ethyl)-N-(2-trifluoromethyl-benzyl)-propionamide]: a half-maximal effect (EC50) was put at 2 nM.

`CNCCN(Cc1ccccc1C(F)(F)F)C(=O)CNc1cccc2c1CCN(C(=O)C1CCC1)C2` [compound 389, 2-(2-Cyclobutanecarbonyl-1,2,3,4-tetrahydro-isoquinolin-5-ylamino)-N-(2-methylamino-ethyl)-N-(2-trifluoromethyl-benzyl)-acetamide] had an EC50 of 20 nM.

Consider `CN(C)CCN(Cc1ccnn1C)C(=O)CNc1cccc2c1CCN(CC1CC1)C2` [Example 264, 2-(2-Cyclopropylmethyl-1,2,3,4-tetrahydro-isoquinolin-5-ylamino)-N-(2-dimethylamino-ethyl)-N-(2-methyl-2H-pyrazol-3-ylmethyl)-acetamide], for which the EC50 was found to be 374 nM.

For `O=C(CNc1cccc2c1CN(CC1CC1)CC2)N(CCN1CCCC(F)(F)C1)Cc1ccccc1C(F)(F)F` [compound 478], the EC50 is 92 nM.

As for `O=C(/C=C/c1cccc2c1CCN(CC1CC1)C2)N(CCO)Cc1ccccc1` [Example 138, (E)-N-Benzyl-3-(2-cyclopropylmethyl-1,2,3,4-tetrahydro-isoquinolin-5-yl)-N-(2-hydroxy-ethyl)-acrylamide], the EC50 is 55 nM.

`CC(C)CN1Cc2cccc(NCC(=O)N(CCN(C)C)Cc3ccccc3C(F)(F)F)c2CC1=O` [Example 312, N-(2-Dimethylamino-ethyl)-2-(2-isobutyl-3-oxo-1,2,3,4-tetrahydro-isoquinolin-5-ylamino)-N-(2-trifluoromethyl-benzyl)-acetamide] came in with a half-maximal effective concentration (EC50) of 37 nM. The EC50 values of the last two compounds are within 1.5-fold of each other.

Compound `CCN1Cc2cccc(NCC(=O)N(CCN(C)C)Cc3ccccc3C(F)(F)F)c2CC1=O` [Example 309, N-(2-Dimethylamino-ethyl)-2-(2-ethyl-3-oxo-1,2,3,4-tetrahydro-isoquinolin-5-ylamino)-N-(2-trifluoromethyl-benzyl)-acetamide] had a 50% effective concentration (EC50) of 24 nM. This EC50 is about 1.5-fold lower than that of the compound before.
